“And” between values parts separate entries of the source, which are not always exact repeats. Identical values can stand only once. Like-named read-outs stand apart in the source and are kept apart here. Where a SMILES comes first, the peptide text is derived from it. Bridges are numbered along the chain shown (N, C = ends).
Key:
[1] = target: T1, mouse KOR (Mus musculus, UniProt P33534); assay: cell-based; conditions: for Emax: HEK293, read-out: Emax cAMP inhibition
[2] = target: T1, mouse KOR
[3] = target: T1, mouse KOR; assay: biochemical
[4] = target: T1, mouse KOR; format: cell-based; set-up: expressed in transfected cells; host or cells: HEK293 (transient, jetPRIME)
[5] = system: human T-cell proliferation; set-up: method as in PMID 23840803; conditions: cited from earlier work
[6] = system: untransfected HEK 293 cells; format: cell-based

T1 sequence (P33534 whole entry): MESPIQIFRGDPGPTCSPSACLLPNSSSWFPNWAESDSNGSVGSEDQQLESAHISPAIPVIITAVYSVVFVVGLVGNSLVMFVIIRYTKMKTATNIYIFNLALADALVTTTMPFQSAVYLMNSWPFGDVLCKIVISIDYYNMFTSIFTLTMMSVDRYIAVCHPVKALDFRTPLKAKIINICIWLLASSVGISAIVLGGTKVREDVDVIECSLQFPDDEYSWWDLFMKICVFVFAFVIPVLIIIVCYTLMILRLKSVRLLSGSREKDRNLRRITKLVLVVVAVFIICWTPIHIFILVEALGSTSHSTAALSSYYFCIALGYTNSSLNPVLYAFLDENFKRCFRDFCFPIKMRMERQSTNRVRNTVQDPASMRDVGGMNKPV

Q: With `CC[C@H](C)[C@@H]1NC(=O)[C@H](C(C)C)NC(=O)[C@H]([C@@H](C)O)NC(=O)[C@H](CO)NC(=O)[C@H](Cc2ccccc2)NC(=O)[C@@H]2CSSC[C@@H]3NC(=O)[C@H](C(C)C)NC(=O)[C@H](CCCCN)NC(=O)[C@H](CC(N)=O)NC(=O)[C@H](CCCCN)NC(=O)[C@@H]4CSSC[C@H](NC(=O)[C@H](CO)NC(=O)[C@H](CCC(=O)O)NC(=O)CNC(=O)[C@H](CSSC[C@H](NC(=O)CNC1=O)C(=O)N[C@@H](CO)C(=O)N4)NC(=O)[C@@H]1CCCN1C(=O)[C@H]([C@@H](C)CC)NC(=O)[C@H](C(C)C)NC(=O)CNC(=O)[C@H](CC(N)=O)NC(=O)[C@H](CCCNC(=N)N)NC(=O)[C@H](Cc1ccc(O)cc1)NC3=O)C(=O)N[C@@H](C(C)C)C(=O)N[C@@H](Cc1ccccc1)C(=O)N[C@@H]([C@@H](C)CC)C(=O)N1CCC[C@H]1C(=O)N2` [caripe 10] (cyclo(CFSTVIGCSCKNKVCYRNGVIPCGESCVFIP); disulfide 1-15, 8-23, 10-27) as the compound, how does the EC50 ([1]; EC50 cAMP inhibition) read?
A: 60200 nM and ~60000 nM

Q: What about the Emax [1] of the same compound?
A: 144 ± 12%

Q: What about the “displacement of [3H]-DPN by cyclotides” value [2] of the same compound?
A: strongest effect

Q: And the Ki [3]?
A: 1200 ± 300 nM

Q: Which “displacement of [3H]-DPN” value ([2]; up to concentrations of 10 μM, 1 nM [3H]-DPN) does the source give for `CC[C@H]1CN2CCc3cc(OC)c(OC)cc3[C@@H]2C[C@@H]1C[C@H]1NCCc2cc(OC)c(OC)cc21` [Emetine] here?
A: did not displace the radioligand

Q: For `CC(C)C[C@@H]1NC(=O)CNC(=O)[C@H](CC(N)=O)NC(=O)[C@H](CCCNC(=N)N)NC(=O)[C@H]([C@@H](C)O)NC(=O)[C@@H]2CSSC[C@@H]3NC(=O)[C@H]([C@@H](C)O)NC(=O)CNC(=O)CNC(=O)[C@H](C(C)C)NC(=O)[C@@H]4CSSC[C@H](NC(=O)[C@H](CCCCN)NC(=O)[C@H](CSSC[C@H](NC(=O)[C@H](C(C)C)NC(=O)[C@@H]5CCCN5C1=O)C(=O)NCC(=O)N[C@@H](CCC(=O)O)C(=O)N[C@@H]([C@@H](C)O)C(=O)N4)NC(=O)CNC(=O)[C@@H]1CCCN1C(=O)[C@H]([C@@H](C)O)NC(=O)[C@H](CC(N)=O)NC3=O)C(=O)N[C@@H](CO)C(=O)N[C@@H](Cc1c[nH]c3ccccc13)C(=O)N1CCC[C@H]1C(=O)N[C@@H](C(C)C)C(=O)N2` [T20K, [T20K]kalata B1] (cyclo(CGETCVGGTCNTPGCKCSWPVCTRNGLPV); disulfide 1-15, 5-17, 10-22), which “increase in basal cAMP production” value [1] is on record?
A: ~50%

Q: What about the “increase in efficacy of dyn A1–13 (cAMP)” value [1] of the same compound?
A: 30–60%

Q: And the EC50 ([1]; EC50 cAMP inhibition)?
A: 24000 nM and ~24000 nM

Q: And the Emax [1]?
A: 105 ± 5%

Q: And the Ki [3]?
A: 2000 nM and ~2000 nM

Q: What about the “β-arrestin-2 recruitment (interaction of β-arrestin-2 and KOR)” value [4] of the same compound?
A: no interaction of β-arrestin-2 and KOR was detected

Q: And the “potency to suppress lymphocyte proliferation” value [5]?
A: 2000 to 4000 nM

Q: Which “cAMP inhibition Emax ± SD” value [1] does the source give for `CC[C@H](C)[C@H](NC(=O)[C@H](CCCNC(=N)N)NC(=O)[C@H](CCCNC(=N)N)NC(=O)[C@H](CC(C)C)NC(=O)[C@H](Cc1ccccc1)NC(=O)CNC(=O)CNC(=O)[C@@H](N)Cc1ccc(O)cc1)C(=O)N[C@@H](CCCNC(=N)N)C(=O)N1CCC[C@H]1C(=O)N[C@@H](CCCCN)C(=O)N[C@@H](CC(C)C)C(=O)N[C@@H](CCCCN)C(N)=O` [dyn A1–13, Dyn A1–13 amide, reference compound] here?
A: 115.5 ± 20.0% and 122.0 ± 21.6% and 133.2 ± 41.9 % and 160.3 ± 47.4 % and 158.8 ± 54.0 %

Q: And the EC50 ([1]; read-out: cAMP inhibition EC50 ± SD)?
A: 8.8 ± 2.4 nM

Q: What about the Ki ([2]; read-out: Ki ± SD) of the same compound?
A: 0.4 nM and 0.3 nM

Q: And the “changes in cAMP levels” value [6]?
A: no changes in cAMP levels were observed

Q: And the EC50 ([4]; read-out: EC50 β-arrestin-2 recruitment)?
A: 159 ± 92.4 nM

Source: PMC8406418 (Journal of Natural Products, 2021)
